Format in all cases: in vivo
For experiment [1], the system named is Rhipicephalus microplus larvae (strain Parkhurst, resistant against synthetic pyrethroids). The experiment is described as follows: Rhipicephalus (Boophilus) microplus in-vitro contact test, larval cattle tick. The following applies: 5 μg/cm^2 (=500 g/ha), after 48 hours, read-out: efficacy (larvae dead or moribund). The procedure, abridged: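 Compound in acetone coated on glass tube inner walls; 900 ppm gives 5 μg/cm^2. Pyrethroid-resistant Parkhurst larvae (20-50 per tube) held at 27 °C, 85% relative humidity. Efficacy scored after 48 h from loss of negative geotaxis; 100% means all larvae dead or moribund.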

Experiment [2] has as its system adult engorged female ticks (Rhipicephalus microplus). The experiment is described as follows: Rhipicephalus (Boophilus) microplus injection test. The following applies: 168 h, 4 μg/animal, after 7 days, read-out: efficacy (infertile eggs). The procedure, abridged:
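Efficacy is scored from egg fertility, with 100% meaning every egg infertile and 0% every egg fertile. Five engorged females per test received 1 μL DMSO solution abdominally. Eggs of unclear fertility were kept until hatching, about 42 days.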

Experiment [3] relates to adult unfed cat fleas (Ctenocephalides felis). The experiment is described as follows: Ctenocephalides felis oral test. The following applies: 48 h. The method in brief:
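About 20 adult unfed fleas fed through parafilm on cattle blood containing compound (DMSO concentrate diluted in blood); blood held at 37° C., fleas at room temperature. Mortality in % scored after 2 days (100% = all killed).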

Experiment [4] has as its system adult brown dog ticks (Rhipicephalus sanguineus). The experiment is described as follows: Rhipicephalus sanguineus in-vitro contact test with adult brown dog ticks. The following applies: 5 μg/cm^2 (=500 g/ha), after 48 hours, read-out: efficacy (ticks dead or moribund). The procedure, abridged:
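Compound in acetone was coated onto inner walls of glass tubes by rotation (2 h, 30 rpm); 900 ppm gives 5 μg/cm^2. After drying, 5-10 adult ticks were enclosed per tube at room temperature; after 48 h, heat-escape test at 45-50° C scored dead/moribund ticks as % efficacy.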

Experiment [5] relates to green peach aphid (Myzus persicae). The experiment is described as follows: Myzus persicae oral test. The note with it: 120 h. The method in brief:
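Compound in acetone was diluted with water, and 50 μL was mixed with 150 μL IPL41 insect medium (33% + 15% sugar). A mixed aphid population fed on this through a parafilm seal. Mortality % was scored after 5 days, where 100% means all aphids were killed.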

Experiment [6] has the same test system. Kind of experiment: Myzus persicae spray test. The note with it: foliar, 120 h, after 5 days, Chinese cabbage leaf disks. The procedure: Myzus persicae—spray test
Solvent: 78.0 parts by weight acetone • 1.5 parts by weight dimethylformamide
(§1) Emulsifier: alkylarylpolyglycol ether
To produce a suitable preparation of active compound, 1 part by weight of active compound is mixed with the stated amount of solvents and is diluted with water, containing an emulsifier concentration of 1000 ppm, to the desired concentration. Further test concentrations are prepared by dilution with emulsifier containing water.
Chinese cabbage (Brassica pekinensis) leaf disks infected with all instars of the green peach aphid (Myzus persicae), are sprayed with a preparation of the active ingredient of the desired concentration.
After 5 days mortality in % is determined. 100% means all aphids have been killed and 0% means none of the aphids have been killed.

Experiment [7] has as its system larvae of the southern green stink bug (Nezara viridula). Kind of experiment: Nezara viridula spray test. The following applies: 96 h, after 4 days, barley plants. As to the method:
Nezara viridula—Spray Test
Solvent: 78.0 parts by weight of acetone • • 1.5 parts by weight of dimethylformamide
as §1
To produce a suitable preparation of active compound, 1 part by weight of active compound is mixed with the stated amount of solvent, and the concentrate is diluted with water, containing an emulsifier concentration of 1000 ppm, to the desired concentration. Further test concentrations are prepared by dilution with emulsifier containing water.
Barley plants (Hordeum vulgare) infested with larvae of the southern green stink bug (Nezara viridula) are sprayed with a test solution containing the desired concentration of the active ingredient.
After 4 days mortality in % is determined. 100% means all the stink bugs have been killed; 0% means none of the stink bugs have been killed.

For experiment [8], the system named is Aedes aegypti strain MONHEIM. The experiment is described as follows: Aedes aegypti test (AEDSAE surface treatment & contact assay). The note with it: 24 hours after contact, read-out: efficacy (mortality). The procedure, abridged:
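Compound dissolved in acetone (2 mg/ml) with 2000 ppm rapeseed oil methyl ester, then dried onto a glazed tile. Adult A. aegypti (MONHEIM strain) exposed to the surface for 30 min. Percent mortality scored 24 h after contact.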

The subject of experiment [9] is Anopheles funestus strain FUMOZ-R. The experiment is described as follows: Anopheles funestus test (ANPHFU surface treatment & contact assay). The following applies: surface concentration 20 mg/m^2, 30 minutes exposure, 24 hours after contact, read-out: efficacy (mortality). The procedure:
Anopheles funestus Test (ANPHFU Surface Treatment & Contact Assay)
Solvent: Aceton+2000 ppm rapeseed oil methyl ester (RME)
In order to produce a sufficient, active ingredient containing solution it is necessary to solve the test compound in the solvent-mix (acetone at 2 mg/ml/RME 2000 ppm). This solution is pipetted onto a glazed tile and after evaporation of the acetone, adult mosquitoes of the species Anopheles funestus strain FUMOZ-R (Hunt et al., Med. Vet. Entomol. 2005 September; 19(3): 271-275) are placed onto the dried surface. The exposure time is 30 minutes. Mortality in percent (%) is determined 24 hours after contact of the insects to the treated surface. 100% mortality means that all tested insects are dead, whereas 0% means that no insect died.

One may read the mortality as the share of the test organisms that died.

`CC(NC(=O)c1cncc(C(F)(F)F)c1)c1nc(Cl)nn1-c1ncccn1` (stereo not shown) [Example I-007]: the pest or weed control at 5 µg/cm2 in experiment [1] came to 100%. The pest or weed control at 0.004 mg in experiment [2] came to 100%. Moreover, the mortality at 100 ppm in experiment [3] worked out at 100%. Further, in [4], the pest or weed control at 5 µg/cm2, 500 g/ha came out at 100%. The molecule further displayed a mortality at 4 ppm in experiment [5] of 90%. Besides, the mortality at 100 g/ha in experiment [6] and in [7] was 90% throughout. In experiment [8] (surface concentration 4 mg/m^2, 30 minutes exposure), the mortality at 4 mg/m2 lay within 80 to 100%. In addition, the mortality at 20 mg/m2 in [8] (surface concentration 20 mg/m^2, 30 minutes exposure) is 80 to 100%; in experiment [9] it was 80 to 100%.
